From the NIST ThermoML archive (doi:10.1016/j.jct.2005.10.007)
± gives the expanded uncertainty stated by the source.

Assay: mn = molality of the nth substance listed, in mol/kg
Details: 350 kPa, Liquid, Extra sensitive DSC

C[C@H](N)C(=O)O [(S)-2-aminopropanoic acid] + O
apparent molar heat capacity [J/K/mol]
Details | m1 = 0.0152 | m1 = 0.0299 | m1 = 0.05 | m1 = 0.08 | m1 = 0.1247 | m1 = 0.2493 | m1 = 0.5149 | m1 = 1.002
338.15 K | 184 ± 75 | 194 ± 38 | 168.8 ± 16 | 172.4 ± 10 | 175.4 ± 6.6 | 178.3 ± 3.5 | 182.3 ± 1.9 | 176.9 ± 1.2
343.15 K | 187 ± 73 | 196 ± 37 | 170.7 ± 16 | 174.2 ± 10 | 177.3 ± 6.6 | 180.1 ± 3.5 | 183.9 ± 1.9 | 178.6 ± 1.2
348.15 K | 188 ± 73 | 197 ± 37 | 172.4 ± 16 | 175.9 ± 10 | 178.9 ± 6.6 | 181.7 ± 3.5 | 185.3 ± 1.9 | 180.1 ± 1.2
353.15 K | 190 ± 72 | 198 ± 37 | 174 ± 16 | 177.4 ± 10 | 180.5 ± 6.6 | 183.1 ± 3.5 | 186.6 ± 1.9 | 181.4 ± 1.2
358.15 K | 191 ± 73 | 199 ± 37 | 175.2 ± 16 | 178.5 ± 10 | 181.6 ± 6.6 | 184.3 ± 3.5 | 187.6 ± 1.9 | 182.5 ± 1.2
363.15 K | 192 ± 73 | 199 ± 37 | 176.1 ± 16 | 179.4 ± 10 | 182.5 ± 6.6 | 185.1 ± 3.5 | 188.4 ± 2 | 183.5 ± 1.2
368.15 K | 192 ± 73 | 200 ± 37 | 176.6 ± 16 | 180.1 ± 10 | 183.3 ± 6.6 | 185.8 ± 3.5 | 189 ± 2 | 184.2 ± 1.2
373.15 K | 192 ± 72 | 200 ± 37 | 177.1 ± 16 | 180.5 ± 10 | 183.7 ± 6.6 | 186.2 ± 3.5 | 189.4 ± 2 | 184.8 ± 1.2
378.15 K | 192 ± 70 | 200 ± 35 | 177.2 ± 16 | 180.6 ± 10 | 183.8 ± 6.6 | 186.4 ± 3.5 | 189.5 ± 2 | 185.1 ± 1.2
383.15 K | 192 ± 70 | 200 ± 35 | 177.1 ± 16 | 180.7 ± 10 | 183.9 ± 6.6 | 186.4 ± 3.5 | 189.6 ± 2 | 185.4 ± 1.2
388.15 K | 192 ± 72 | 199 ± 37 | 176.8 ± 16 | 180.3 ± 10 | 183.6 ± 6.6 | 186.2 ± 3.5 | 189.4 ± 2 | 185.5 ± 1.2
393.15 K | 190 ± 72 | 200 ± 37 | 176.6 ± 16 | 179.8 ± 10 | 183.1 ± 6.6 | 185.8 ± 3.5 | 189.2 ± 2 | 185.5 ± 1.2
